Data: publication PMC6325200, “Effects of Microplate Type and Broth Additives on Microdilution MIC Susceptibility Assays” (Antimicrobial Agents and Chemotherapy, 2018)
Values after ≈ are worked out from the molar mass of the structure shown. Values joined by “and” are separate entries in the source; they are usually repeats but may differ in a detail not shown here. Identical values can stand only once. Like-named read-outs stand apart in the source and are kept apart here. Where a SMILES comes first, the peptide text is derived from it. Bridges are numbered along the chain shown (N, C = ends). [ ]: non-standard residue; d: D form. The star is where a group is joined. X1 = CC[C@H](C)CCCCC(=O)*; Dab = NCC[C@H](N)C(=O)O

Legend:
E. coli = conditions: literature value; cited from earlier work
[1] = 8 µg/ml, 24 h, cited from earlier work; for % of expected concentration detected: MHB
Source text: (§1) Members of the lipopeptide polymyxin class of antibiotics (polymyxin B [compound 7a] and polymyxin E [or colistin, compound 7b]) are important last-line therapeutic agents against many multidrug-resistant Gram-negative bacteria ([27][–][31]). They consist of an N-terminal fatty acid side chain that is attached to a polycationic deca-peptide backbone (Fig. 1) with physicochemical properties similar to those of the lipoglycopeptides. These structural features confer amphipathicity, which is a key feature of many other cationic antimicrobial peptides (CAMPs) ([32][–][34]). As mentioned earlier, p ...

over 200 strains = conditions: 0.002% polysorbate added; cited from earlier work
Source text: as §1

A. baumannii ATCC 19606 = assay: microbe, parasite or virus in culture; conditions: n = 2
Procedure: (§2) A positive control of a row of just the bacteria and a negative control of only the medium were included for every plate tested.
(§3) The compounds along with standard antibiotics were serially diluted 2-fold across the 96-well plates. […] A sample of each culture was then diluted 40-fold in fresh MH broth (in presence and absence of Tween) and incubated at 37°C for 2 to 3 h.

P. aeruginosa ATCC 10145 = assay: microbe, parasite or virus in culture; conditions: n = 2
Procedure: as §2, §3

K. pneumoniae ATCC 13883 = assay: microbe, parasite or virus in culture; conditions: n = 2
Procedure: as §2, §3

[2] = literature values, reference given; cited from earlier work
Source text: Other assay additives can affect MIC values. […] Plasma protein binding has been implicated as a major factor limiting the active free concentration of many clinically important antibiotics ([37][–][42]).

E. coli ATCC 25922 = assay: microbe, parasite or virus in culture
Procedure: as §2, §3
For experiments in the presence of surfactant, 2% beractant (25 mg/ml) was added to the mid-log-phase cultures and mixed gently and added to all the 96-well plates. For experiments in the presence of serum, a mixture of 50% of human serum along with 50% MHB was prepared and used throughout the experiment.

For `CC[C@H](C)CCCCC(=O)N[C@@H](CCN)C(=O)N[C@H](C(=O)N[C@@H](CCN)C(=O)N[C@H]1CCNC(=O)[C@H]([C@@H](C)O)NC(=O)[C@H](CCN)NC(=O)[C@H](CCN)NC(=O)[C@H](CC(C)C)NC(=O)[C@@H](CC(C)C)NC(=O)[C@H](CCN)NC1=O)[C@@H](C)O` [Colistin, colistin] (X1-[Dab]T[Dab][Dab][Dab][dL]L[Dab][Dab]T; lactam 4-C (inferred); N-terminus assumed), the “MIC (literature)” value (E. coli) is given as 0.5–2 ([70]) µg/ml, the “% of concentration remaining” value ([1]; Greiner untreated PS microwell plates) is given as 2% and the “% of expected concentration detected” value ([1]; PP tubes) is given as 90%. For the same compound, the “% of expected concentration detected” value ([1]; PS tubes) was 84%, the “% of expected concentration detected” value ([1]; glass tubes) was 80% and the “% of concentration remaining” value ([1]; Nunc untreated PS microwell plates) was 70%. The “more potent MICs with surfactant present” value (over 200 strains) was 4- to 8 fold, the MIC (A. baumannii ATCC 19606; Corning NBS, MHB +T80) was no more than 0.03 µg/mL and the MIC (A. baumannii ATCC 19606; Corning NBS, MHB -T80) was no more than 0.03 µg/mL. It also gave an MIC (A. baumannii ATCC 19606; Corning PS, MHB +T80) of 0.06 µg/mL (≈ 0.0513 µM), an MIC (A. baumannii ATCC 19606; Corning PS, MHB -T80) of 0.06 to 0.125 µg/mL and an MIC (A. baumannii ATCC 19606; Corning TC, MHB +T80) of 1 to 2 µg/mL. The MIC (A. baumannii ATCC 19606; Corning TC, MHB -T80) was 0.5 to 1 µg/mL, the MIC (P. aeruginosa ATCC 10145; Corning NBS, MHB +T80) was 0.125 µg/mL (≈ 0.107 µM) and the MIC (P. aeruginosa ATCC 10145; Corning NBS, MHB -T80) was 0.06 µg/mL (≈ 0.0513 µM). It also gave an MIC (P. aeruginosa ATCC 10145; Corning PS, MHB +T80) of 0.25 to 0.5 µg/mL, an MIC (P. aeruginosa ATCC 10145; Corning PS, MHB -T80) of 0.25 to 0.5 µg/mL and an MIC (P. aeruginosa ATCC 10145; Corning TC, MHB +T80) of 1 to 2 µg/mL. For the same compound, the MIC (P. aeruginosa ATCC 10145; Corning TC, MHB -T80) was 0.5 to 2 µg/mL, the MIC (K. pneumoniae ATCC 13883; Corning NBS, MHB +T80) was no more than 0.03 µg/mL and the MIC (K. pneumoniae ATCC 13883; Corning NBS, MHB -T80) was no more than 0.03 µg/mL. It also gave an MIC (K. pneumoniae ATCC 13883; Corning PS, MHB +T80) of no more than 0.03 µg/mL, an MIC (K. pneumoniae ATCC 13883; Corning PS, MHB -T80) of 0.125 to 0.25 µg/mL and an MIC (K. pneumoniae ATCC 13883; Corning TC, MHB +T80) of 0.25 to 0.5 µg/mL. For the same compound, the MIC (K. pneumoniae ATCC 13883; Corning TC, MHB -T80) was 2 µg/mL (≈ 1.71 µM), the protein binding [2] was 50 to 60% and 60% and the MIC (E. coli ATCC 25922; Corning NBS, MH + 2% LHB, 2% LS, n = 2) was 0.03 to 0.06 µg/mL. For the same compound, the MIC (E. coli ATCC 25922; Corning NBS, MH + 2% LHB, 50% HS, n = 2) was no more than 0.03 µg/mL, the MIC (E. coli ATCC 25922; Corning NBS, MH + 2% LHB, no additive, n = 2) was no more than 0.03 µg/mL and the MIC (E. coli ATCC 25922; Corning NBS, MH + T80, 2% LS, n = 2) was 0.03 to 0.06 µg/mL. The MIC (E. coli ATCC 25922; Corning NBS, MH + T80, 50% HS, n = 2) was no more than 0.03 µg/mL, the MIC (E. coli ATCC 25922; Corning NBS, MH, 2% LS, n = 2) was no more than 0.03 µg/mL and the MIC (E. coli ATCC 25922; Corning NBS, MH, 50% HS, n = 2) was no more than 0.03 µg/mL. For the same compound, the MIC (E. coli ATCC 25922; Corning PS plate, MHB −T80, no additive, n = 2) was 0.06 µg/mL (≈ 0.0513 µM), the MIC (E. coli ATCC 25922; Corning PS, MH + 2% LHB, 2% LS, n = 2) was 0.06 to 0.125 µg/mL and the MIC (E. coli ATCC 25922; Corning PS, MH + 2% LHB, 50% HS, n = 2) was no more than 0.03 µg/mL. For the same compound, the MIC (E. coli ATCC 25922; Corning PS, MH + 2% LHB, no additive, n = 2) was 1 µg/mL, the MIC (E. coli ATCC 25922; Corning PS, MH + T80, 2% LS, n = 2) was 0.03 to 0.06 µg/mL and the MIC (E. coli ATCC 25922; Corning PS, MH + T80, 50% HS, n = 2) was no more than 0.03 µg/mL. It also gave an MIC (E. coli ATCC 25922; Corning PS, MH, 2% LS, n = 2) of 0.06 to 0.25 µg/mL, an MIC (E. coli ATCC 25922; Corning PS, MH, 50% HS, n = 2) of no more than 0.03 µg/mL and an MIC (E. coli ATCC 25922; Corning TC plate, MHB +0.002% T80, no further additive, n = 2) of 1 µg/mL (≈ 0.855 µM). It also gave an MIC (E. coli ATCC 25922; Corning TC plate, MHB −T80, no additive, n = 2) of 0.5 to 1 µg/mL, an MIC (E. coli ATCC 25922; Corning TC, MH + 2% LHB, 2% LS, n = 2) of 2 to 4 µg/mL and an MIC (E. coli ATCC 25922; Corning TC, MH + 2% LHB, 50% HS, n = 2) of 0.25 to 0.5 µg/mL. For the same compound, the MIC (E. coli ATCC 25922; Corning TC, MH + 2% LHB, no additive, n = 2) was no more than 0.03 µg/mL, the MIC (E. coli ATCC 25922; Corning TC, MH + T80, 2% LS, n = 2) was 1 to 2 µg/mL and the MIC (E. coli ATCC 25922; Corning TC, MH + T80, 50% HS, n = 2) was 0.25 to 0.5 µg/mL. For the same compound, the MIC (E. coli ATCC 25922; Corning TC, MH, 2% LS, n = 2) was 0.5 to 1 µg/mL, the MIC (E. coli ATCC 25922; Corning TC, MH, 50% HS, n = 2) was 0.125 to 0.5 µg/mL and the “MIC” value (E. coli ATCC 25922; NBS plates) was no more than 0.03 µg/mL. It also gave an MIC (E. coli ATCC 25922; Nunc PS plate, MHB +0.002% T80, n = 2) of no more than 0.03 µg/mL, an MIC (E. coli ATCC 25922; Nunc PS plate, MHB −T80, n = 2) of 0.125 to 1 µg/mL and an MIC (E. coli ATCC 25922; Nunc U TC plate, MHB +0.002% T80, n = 2) of 2 µg/mL (≈ 1.71 µM). It also gave an MIC (E. coli ATCC 25922; Nunc U TC plate, MHB −T80, n = 2) of 0.5 to 1 µg/mL, an MIC (E. coli ATCC 25922; Nunc flat TC plate, MHB +0.002% T80, n = 2) of 1 to 2 µg/mL and an MIC (E. coli ATCC 25922; Nunc flat TC plate, MHB −T80, n = 2) of 1 to 2 µg/mL. For the same compound, the “MIC” value (E. coli ATCC 25922; PS plates) was no more than 0.03 to 1 µg/mL, the “MIC” value (E. coli ATCC 25922; PS plates with T80) was no more than 0.03 to 0.25 µg/mL and the “MIC” value (E. coli ATCC 25922; TC plates) was 0.5 to 4 µg/mL. For the same compound, the MIC (E. coli ATCC 25922; Trek PS plate, MHB +0.002% T80, no further additive, n = 2) was no more than 0.03 µg/mL, the MIC (E. coli ATCC 25922; Trek PS plate, MHB −T80, no additive, n = 2) was no more than 0.03 µg/mL and the MIC (E. coli ATCC 25922; Trek PS, MH + 2% LHB, 2% LS, n = 2) was no more than 0.03 µg/mL. The MIC (E. coli ATCC 25922; Trek PS, MH + 2% LHB, 50% HS, n = 2) was 0.03 to 0.06 µg/mL, the MIC (E. coli ATCC 25922; Trek PS, MH + 2% LHB, no additive, n = 2) was 0.03 to 0.06 µg/mL and the MIC (E. coli ATCC 25922; Trek PS, MH + T80, 2% LS, n = 2) was no more than 0.03 µg/mL. It also gave an MIC (E. coli ATCC 25922; Trek PS, MH + T80, 50% HS, n = 2) of no more than 0.03 µg/mL, an MIC (E. coli ATCC 25922; Trek PS, MH, 2% LS, n = 2) of no more than 0.03 µg/mL and an MIC (E. coli ATCC 25922; Trek PS, MH, 50% HS, n = 2) of no more than 0.03 µg/mL.
